Entries after “also recorded” stand apart in the source; their conditions may differ.
System: ZIKA rabbits
Assay type: in vivo
Settings: rabbits n=3 immunized with CRM197-23* in alhydrogel day 0 and 14; sera before and after immunization

C[C@@H]1O[C@@H](O[C@H]2C(C(=O)O)O[C@H](OC3C(O)[C@@H](O)[C@H](C)O[C@H]3OC3C(O)[C@@H](O)[C@H](C)O[C@H]3OC3C(O)[C@@H](O)[C@H](C)O[C@H]3OCCCCCN)C(O)[C@H]2O[C@@H]2OC(CO)[C@H](O)[C@H](O)C2O)C(O)C(O)[C@H]1O (stereo partly drawn) [hexasaccharide 23*, 5-Amino-pentanyl α-L-rhamnopyranosyl-(1→4)-[P3-D-galactopyranosyl-(1→3)]-α-D-galactopyranosyluronic acid-(1→2)-α-L-rhamnopyranosyl-(1→2)-α-L-rhamnopyranosyl-(1→2)-α-L-rhamnopyranoside]
immunogenicity and cross-reactivity of antibodies by glycan microarray: specific antibodies are cross-reactive with native polysaccharide and other synthetic glycans; also recorded: immunogenic in rabbits and induces cross-reactive antibodies
